Values after ≈ are worked out from the molar mass of the structure shown.
Experiments:
Histone deacetylase = assay: Inhibition of mouse liver HDAC using Boc-Lys (Ac)-AMC as substrate preincubated for 5 mins followed by substrate addition and measured after 30 mins by fluorescence assay
U-251 [1] = assay: Antiproliferative activity against human U251 cells after 24 hrs by SRB assay; format: functional, cell-based; conditions: U-251, 24 h
PBMC = assay: Cytotoxicity against human PBMC after 72 hrs by MTT assay; format: cell-based
SF-295 [2] = assay: Cytotoxicity against human SF295 cells after 72 hrs by MTT assay; format: functional, cell-based; conditions: SF-295, 72 h
[3] = Antiproliferative activity against human U3005MG cells by CellTiter-Glo assay; format: functional, cell-based
[4] = Antiproliferative activity against human U3046MG cells by CellTiter-Glo assay; format: functional, cell-based
U-251 [5] = assay: Antitumor activity against human U251 cells xenografted in CAnN. Cg-Foxn1nu/CrlCrlj nude mouse assessed as tumor growth inhibition at 240 mg/kg, ip dosed 5 times a week for 39 days relative to control; format: functional; conditions: U-251, ip, 936 h, read-out: TGI
SNB-78 = assay: Antiproliferative activity against human SNB78 cells after 6 days by cell counting analysis; format: functional; conditions: SNB-78, 144 h
SF-295 [6] = assay: Antiproliferative activity against human SF295 cells after 6 days by cell counting analysis; format: functional; conditions: SF-295, 144 h
U-251 [7] = assay: Antitumor activity against human U251 cells xenografted in CAnN. Cg-Foxn1nu/CrlCrlj nude mouse assessed as inhibition of tumor weight at 240 mg/kg, ip dosed 5 times a week for 39 days relative to control; format: functional; conditions: U-251, ip, 936 h
U-251 [8] = assay: Antiproliferative activity against human U251 cells after 6 days by cell counting analysis; format: functional; conditions: U-251, 144 h
SF-268 = assay: Antiproliferative activity against human SF268 cells after 6 days by cell counting analysis; format: functional; conditions: SF-268, 144 h
SNB-75 = assay: Antiproliferative activity against human SNB75 cells after 6 days by cell counting analysis; format: functional; conditions: SNB-75, 144 h
SF-539 = assay: Antiproliferative activity against human SF539 cells after 6 days by cell counting analysis; format: functional; conditions: SF-539, 144 h
[9] = Antiproliferative activity against mouse GL26 cells after 120 hrs by WST-1 assay; format: functional, cell-based; conditions: GL26, 120 h
U-251 [10] = assay: Antiproliferative activity against human U251 cells after 120 hrs by WST-1 assay; format: functional, cell-based; conditions: U-251, 120 h
U-87 MG [11] = assay: Antiproliferative activity against human U87 cells; format: functional, cell-based, U-87MG ATCC
U-87 MG [12] = assay: Antiproliferative activity against human U87 cells after 5 days by AlamarBlue assay; format: functional, cell-based, U-87MG ATCC; conditions: 120 h
U138-MG = assay: Antiproliferative activity against human U138MG cells after 5 days by AlamarBlue assay; format: functional, cell-based; conditions: 120 h
T98G = assay: Antiproliferative activity against human T98G cells after 5 days by AlamarBlue assay; format: functional, cell-based; conditions: 120 h
[13] = Antiproliferative activity against human U373 cells after 5 days by AlamarBlue assay; format: functional, cell-based, U-373MG ATCC; conditions: U373 MG, 120 h
LN-229 = assay: Antiproliferative activity against human LN229 cells after 5 days by AlamarBlue assay; format: functional, cell-based; conditions: LN-229, 120 h
U-251 [14] = assay: Antiproliferative activity against human U251 cells after 72 hrs by WST-1 assay; format: functional, cell-based; conditions: U-251, 72 h
U-87 MG [15] = assay: Antiproliferative activity against human U87 cells after 72 hrs by WST-1 assay; format: functional, cell-based, U-87MG ATCC
A 172 = assay: Antiproliferative activity against human A172 cells after 72 hrs by WST-1 assay; format: functional, cell-based; conditions: A 172, 72 h
[16] = Antiproliferative activity against human MGG8 cells after 72 hrs by WST-1 assay; format: functional, cell-based
[17] = Antiproliferative activity against human MGG4 cells after 72 hrs by WST-1 assay; format: functional, cell-based
[18] = Antiproliferative activity against human BT74 cells after 72 hrs by WST-1 assay; format: functional, cell-based
U-87 MG [19] = assay: Antiproliferative activity against human U87MG cells after 72 hrs by coulter counting analysis; format: functional, cell-based, U-87MG ATCC
U-251 [20] = assay: Antiproliferative activity against human U251 cells after 72 hrs by coulter counting analysis; format: functional, cell-based; conditions: U-251, 72 h
[21] = Antiproliferative activity against human DBTRG cells after 72 hrs by coulter counting analysis; format: functional, cell-based
GBM = assay: Cytotoxicity against GBM cells derived from human patient after 72 hrs by AlamarBlue assay; format: functional, cell-based
U-87 MG [22] = assay: Cytotoxicity against human U87 cells expressing EGFRvIII after 72 hrs by AlamarBlue assay; format: functional, cell-based, U-87MG ATCC
U-251 [23] = assay: Cytotoxicity against human U251 cells after 72 hrs by AlamarBlue assay; format: functional, cell-based; conditions: U-251, 72 h
U-87 MG [24] = assay: Cytotoxicity against human U87 cells after 72 hrs by AlamarBlue assay; format: functional, cell-based, U-87MG ATCC
U-251 [25] = assay: Antiproliferative activity against human U251 cells assessed as reduction in cell viability after 72 hrs in presence of irradiation by AlamarBlue assay; format: functional, cell-based; conditions: U-251, light or radiation study
[26] = Antiproliferative activity against human RN1 cells assessed as reduction in cell viability after 72 hrs in presence of irradiation by AlamarBlue assay; format: functional, cell-based; conditions: RN1, light or radiation study
[27] = Antiproliferative activity against human RN1 cells assessed as reduction in cell viability after 72 hrs by AlamarBlue assay; format: functional, cell-based; conditions: RN1, 72 h
U-251 [28] = assay: Antiproliferative activity against human U251 cells after 24 hrs by MTT assay; format: functional, cell-based; conditions: U-251, 24 h
U-87 MG [29] = assay: Antitumor activity against human U87MG cells xenografted in nude-Fox1nu mouse assessed as tumor growth inhibition at 150 mg/kg bid relative to control; format: functional, U-87MG ATCC; conditions: read-out: TGI
U-87 MG [30] = assay: Antiproliferative activity against human U87MG cells after 96 hrs; format: functional, U-87MG ATCC
[31] = Cytotoxicity against patient derived GSC after 96 hrs by CellTiter-Glo assay; format: functional, Homo sapiens
SNB-19 = assay: Antiproliferative activity against human SNB19 cells after 72 hrs by WST-1 assay; format: functional, cell-based; conditions: SNB-19, 72 h
U-87 MG [32] = assay: Antiproliferative activity against human U87 cells after 48 hrs by MTT assay; format: functional, U-87MG ATCC

O=C(CCCCCn1cc(C(=O)Nc2nc3ccccc3s2)c(=O)c2ccccc21)NO
IC50 (Histone deacetylase): 0.0015 µM
IC50 (U-251 [1]): 0.7 µM

O=C(O)CNC1=CC(=O)c2ccccc2C1=O
IC50 (PBMC): 23.8 µM
IC50 (SF-295 [2]): 2.4 µM

CN1CCN(CCCN2c3ccccc3Sc3ccc(C(F)(F)F)cc32)CC1 [TRIFLUOPERAZINE]
EC50 [3]: 1.85 µM
EC50 [4]: 1.34 µM

O=C1C=C(N[C@@H](Cc2ccccc2)C(=O)O)C(=O)c2ccccc21
IC50 (PBMC): 37.9 µM
IC50 (SF-295 [2]): 2 µM

Cc1oc2nc1-c1nc(co1)C(=O)N[C@@H](Cc1ccc(O)cc1)c1nc(c(C)o1)-c1nc(c(C)o1)-c1nc(co1)C(=O)N[C@@H](Cc1ccc(O)cc1)c1nc-2c(C)o1
inhibition in vivo at 240 mg/kg (U-251 [5]): 33%
GI50 (SNB-78): 0.021 to 0.18 µM
GI50 (SF-295 [6]): 0.021 to 0.18 µM
inhibition in vivo at 240 mg/kg (U-251 [7]): 61%
GI50 (U-251 [8]): 0.021 to 0.18 µM
GI50 (SF-268): 0.021 to 0.18 µM
GI50 (SNB-75): 0.021 to 0.18 µM
GI50 (SF-539): 0.021 to 0.18 µM

C=C1/C(=C/C=C2\CCC[C@]3(C)[C@@H]([C@H](C)CCCCNC(=O)CCC(=O)O)CC[C@@H]23)C[C@@H](O)C[C@@H]1O
IC50 [9]: 0.016 nM
IC50 (U-251 [10]): 0.000457 µM

NS(=O)(=O)c1cccc2c1C(=O)c1cccc(O)c1C2=O
IC50 (U-87 MG [11]): 0.21 µM

O=C(Nc1ccc([N+](=O)[O-])cc1Cl)c1cc(Cl)ccc1O [NICLOSAMIDE]
IC50 (U-87 MG [12]): 0.3 to 1.2 µM
IC50 (U138-MG): 0.3 to 1.2 µM
IC50 (T98G): 0.3 to 1.2 µM
IC50 [13]: 0.3 to 1.2 µM
IC50 (LN-229): 0.3 to 1.2 µM

CCn1c(C)c(C(=O)c2ccc(C)c3ccccc23)c2ccccc21
EC50 (U-251 [14]): 2400 to 8600 µM
EC50 (U-87 MG [15]): 2400 to 8600 µM
EC50 (A 172): 2400 to 8600 µM
EC50 [16]: 2400 to 8600 µM
EC50 [17]: 2400 to 8600 µM
EC50 [18]: 2400 to 8600 µM

Nc1c(-c2cccnc2)ncc2c1C(=O)c1c(-c3ccccn3)nn(-c3ccc(F)cc3F)c1C2=O
IC50 (U-87 MG [19]): 2.5 µM
IC50 (U-251 [20]): 2.5 µM
IC50 [21]: 2.5 µM

O=C(CCCc1ccc(-c2cc3ccccc3cn2)cc1)Nc1ccc(O)cc1
EC50 (GBM): 0.54 µM
EC50 (U-87 MG [22]): 0.6 to 1.3 µM
EC50 (U-251 [23]): 0.6 to 1.3 µM
EC50 (U-87 MG [24]): 0.6 to 1.3 µM

COc1cc(COc2ccc(NC(=O)CCCc3ccc(-c4cccnc4F)cc3)cc2)c([N+](=O)[O-])cc1OC
EC50 (U-251 [25]): 1.3 µM
EC50 [26]: 0.3 µM
EC50 [27]: 37.4 µM

Cc1ccc(-c2nnc(SCC(=O)N3N=C(c4cccs4)CC3c3ccc(Cl)cc3)o2)cc1 (stereo unspecified)
IC50 (U-251 [28]): 11.9 µM

CS(=O)(=O)N1CCN(Cc2cc3nc(-c4cccc5[nH]ncc45)nc(N4CCOCC4)c3s2)CC1 [PICTILISIB]
inhibition in vivo at 150 mg/kg (U-87 MG [29]): 98%
GI50 (U-87 MG [30]): 0.07 µM

CCN(CC)C(=S)SSC(=S)N(CC)CC
IC50 [31]: 0.0311 µM

C#CCSc1nc(Cl)nc2nc(SCC#C)n(C)c12
IC50 (SNB-19): 0.07 µg/mL (≈ 0.227 µM)

Cc1nc(=O)c2c(-c3ccccc3)c(C(=O)c3ccccc3)[nH]c2[nH]1
GI50 (U-87 MG [32]): 0.077 µM

From ChEMBL document CHEMBL4422617, “Recent advances in the discovery of small molecules targeting glioblastoma” (Eur J Med Chem, 2019)
